Results: paper PMC4201456, “Cytoxicity and Apoptotic Mechanism of Ruthenium(II) Amino Acid Complexes in Sarcoma-180 Tumor Cells” (PLoS ONE, 2014)

How the values were obtained:
[1] = test system: L929 normal cells; assay: MTT cell viability assay, L929 normal cells; type: cell-based, murine; settings: L929 normal cell line, 48 h
Description: (§1) The murine sarcoma-180 tumor cells (S180) (ATCC# TIB-66) and normal murine fibroblast cells (L-929) (ATCC# CCL-1) were cultured in suspension in RPMI 1640 and DMEM media (Sigma Chemical Co., MO), respectively, supplemented with 10% fetal calf serum, 100 µg/mL penicillin, and 100 µg/mL streptomycin. The cultures were incubated in a humidified incubator (Thermo Scientific) at 37°C with 5% CO2.
(§2) The cytotoxic effects of the amino acid ruthenium complexes were evaluated using an MTT assay with S180 tumor cells and L929 normal cells as described previously. Briefly, 1.0×10^5 S180 cells and 2.0×10^4 L929 cells were plated in 96-well tissue culture plates and treated with different concentrations of amino acid ruthenium complexes (0.2–200 µM) for 48 h. After treatment, 10 µL of MTT (5 mg mL^−1) was added to each well, and the plates were incubated at 37°C for an additional 3 h. The purple formazan crystals were dissolved in 50 µL of SDS, and the absorbance was determined at 545 nm using a Stat Fax 2100 microplate reader (Awareness Technology, Palm City, FL, USA). The cell viability was calculated as follows: viability (%) = (absorbance of the treated wells)/(absorbance of the control wells) ×100. The IC50 (complex concentration (µM) that results in a 50% reduction in cellular viability) was obtained from dose-response curves using GraphPad Prism 4.02 for Windows (GraphPad Software, San Diego, CA, USA).

[2] = test system: S180 tumor cells; assay: MTT cell viability assay, S180 tumor cells; type: cell-based, murine; settings: S180 tumor cell line, 48 h
Description: as §1, §2

[3] = test system: S180 cells; parameters: method as in earlier work; settings: previous studies; cited from earlier work
[4] = test system: pBR322 plasmid DNA; parameters: method as in PMID 21875763; settings: previous study; cited from earlier work

| Structure (SMILES) | IC50 [1] | IC50 [2] | numbers of Annexin V-positive S180 cells [3] | effect on plasmid DNA (AFM images) [4] |
| --- | --- | --- | --- | --- |
| F[P-](F)(F)(F)(F)F.F[P-](F)(F)(F)(F)F.N[C@@H](CC(=O)O)C(=O)O.[Ru+2].c1ccc(-c2ccccn2)nc1.c1ccc(P(CCCCP(c2ccccc2)c2ccccc2)c2ccccc2)cc1 [Complex 4, [Ru(aspac)(bipy)(dppb)](PF6)2] | 107 ± 8.98 µM | 42.2 ± 3.98 µM | – | – |
| N.N.N.N.[Cl-].[Cl][Ru+][Cl] [cis-[RuCl2(NH3)4]Cl] | – | – | increased the numbers of Annexin V-positive S180 cells | – |
| F[P-](F)(F)(F)(F)F.O=C1[O][Ru-4]23([n+]4ccccc41)([n+]1ccccc1-c1cccc[n+]12)[P+](c1ccccc1)(c1ccccc1)CCCC[P+]3(c1ccccc1)c1ccccc1 [[Ru(pic)(dppb(bipy)]PF6] | – | – | – | strong aggregation of plasmid DNA |
| CSCC[C@H](N)C(=O)[O-].F[P-](F)(F)(F)(F)F.[Ru+2].c1ccc(-c2ccccn2)nc1.c1ccc(P(CCCCP(c2ccccc2)c2ccccc2)c2ccccc2)cc1 [Complex 1, [Ru(met)(bipy)(dppb)]PF6] | 27.4 ± 3.32 µM | 22.5 ± 3.4 µM | – | – |
| N.N.[Cl][Pt][Cl] [Cisplatin, cisplatin, reference compound] | 29.1 ± 1.88 µM | 64.83 ± 0.17 µM | – | – |
| CC(C)C[C@H](N)C(=O)[O-].F[P-](F)(F)(F)(F)F.[Ru+2].c1ccc(-c2ccccn2)nc1.c1ccc(P(CCCCP(c2ccccc2)c2ccccc2)c2ccccc2)cc1 [Complex 3, [Ru(leu)(bipy)(dppb)]PF6] | 47.1 ± 5.94 µM | 38.2 ± 7 µM | – | – |
| C[C@H](N)C(=O)[O-].F[P-](F)(F)(F)(F)F.[Ru+2].c1ccc(-c2ccccn2)nc1.c1ccc(P(CCCCP(c2ccccc2)c2ccccc2)c2ccccc2)cc1 [Complex 5, [Ru(ala)(bipy)(dppb)]PF6] | 97.8 ± 8.99 µM | 50.2 ± 1.03 µM | – | – |
